Experimental data: ChEMBL document CHEMBL2440076, “New triarylpyrazoles as broad-spectrum anticancer agents: design, synthesis, and biological evaluation” (Eur J Med Chem, 2013)

Assays:
[1] = test system: LOX IMVI; test: Growth inhibition of human LOXIMVI cells assessed as cell growth at 10 uM after 48 hrs by sulforhodamine B assay; format: functional; details: read-out: Activity
[2] = test system: HT-29; test: Growth inhibition of human HT-29 cells after 48 hrs by sulforhodamine B assay; format: functional; details: HT-29, 48 h; for CC50: read-out: LC50 (the source's name)
[3] = test system: HCT-116; test: Growth inhibition of human HCT116 cells after 48 hrs by sulforhodamine B assay; format: functional; details: HCT-116, 48 h; for CC50: read-out: LC50 (the source's name)
[4] = test system: RXF 393; test: Growth inhibition of human RXF393 cells assessed as cell growth at 10 uM after 48 hrs by sulforhodamine B assay; format: functional; details: RXF 393, 48 h, read-out: Activity
[5] = test system: HL-60(TB); test: Growth inhibition of human HL-60(TB) cells assessed as cell growth at 10 uM after 48 hrs by sulforhodamine B assay; format: functional; details: HL-60, 48 h, read-out: Activity
[6] = test system: SN12C; test: Growth inhibition of human SN12C cells assessed as cell growth at 10 uM after 48 hrs by sulforhodamine B assay; format: functional; details: read-out: Activity
[7] = test system: Malme-3M; test: Growth inhibition of human MALME-3M cells after 48 hrs by sulforhodamine B assay; format: functional
[8] = test system: SNB-19; test: Growth inhibition of human SNB19 cells assessed as cell growth at 10 uM after 48 hrs by sulforhodamine B assay; format: functional; details: SNB-19, 48 h, read-out: Activity
[9] = test system: TK-10; test: Growth inhibition of human TK10 cells assessed as cell growth at 10 uM after 48 hrs by sulforhodamine B assay; format: functional; details: TK-10, 48 h, read-out: Activity
[10] = test system: U-251; test: Growth inhibition of human U251 cells after 48 hrs by sulforhodamine B assay; format: functional; details: U-251, 48 h
[11] = test system: 786-0; test: Growth inhibition of human 786-0 cells assessed as cell growth at 10 uM after 48 hrs by sulforhodamine B assay; format: functional; details: 786-0, 48 h, read-out: Activity
[12] = test system: SF-295; test: Growth inhibition of human SF295 cells after 48 hrs by sulforhodamine B assay; format: functional, cell-based; details: SF-295, 48 h; for CC50: read-out: LC50 (the source's name)
[13] = Growth inhibition of human Hs 578T cells assessed as cell growth at 10 uM after 48 hrs by sulforhodamine B assay; format: functional; details: read-out: Activity
[14] = test system: MDA-MB-231; test: Growth inhibition of human MDA-MB-231 cells after 48 hrs by sulforhodamine B assay; format: functional; details: MDA-MB-231, 48 h
[15] = test system: IGROV-1; test: Growth inhibition of human IGROV1 cells after 48 hrs by sulforhodamine B assay; format: functional; details: IGROV-1, 48 h
[16] = test system: RXF 393; test: Growth inhibition of human RXF393 cells after 48 hrs by sulforhodamine B assay; format: functional; details: RXF 393, 48 h
[17] = Growth inhibition of human Hs 578T cells after 48 hrs by sulforhodamine B assay; format: functional; details: for CC50: read-out: LC50 (the source's name)
[18] = test system: SF-268; test: Growth inhibition of human SF268 cells assessed as cell growth at 10 uM after 48 hrs by sulforhodamine B assay; format: functional; details: SF-268, 48 h, read-out: Activity
[19] = test system: NCI-H322M; test: Growth inhibition of human NCI-H322M cells assessed as cell growth at 10 uM after 48 hrs by sulforhodamine B assay; format: functional; details: read-out: Activity
[20] = test system: NCI-H322M; test: Growth inhibition of human NCI-H322M cells after 48 hrs by sulforhodamine B assay; format: functional; details: for CC50: read-out: LC50 (the source's name)
[21] = test system: MDA-MB-435; test: Growth inhibition of human MDA-MB-435 cells assessed as cell growth at 10 uM after 48 hrs by sulforhodamine B assay; format: functional; details: MDA-MB-435, 48 h, read-out: Activity
[22] = test system: MDA-MB-468; test: Growth inhibition of human MDA-MB-468 cells after 48 hrs by sulforhodamine B assay; format: functional, cell-based; details: MDA-MB-468, 48 h; for CC50: read-out: LC50 (the source's name)
[23] = test system: NCI-H23; test: Growth inhibition of human NCI-H23 cells after 48 hrs by sulforhodamine B assay; format: functional; details: NCI-H23, 48 h
[24] = test system: SK-MEL-5; test: Growth inhibition of human SK-MEL-5 cells assessed as cell growth at 10 uM after 48 hrs by sulforhodamine B assay; format: functional; details: SK-MEL-5, 48 h, read-out: Activity
[25] = test system: UACC-62; test: Growth inhibition of human UACC62 cells assessed as cell growth at 10 uM after 48 hrs by sulforhodamine B assay; format: functional; details: UACC-62, 48 h, read-out: Activity
[26] = test system: BT-549; test: Growth inhibition of human BT549 cells assessed as cell growth at 10 uM after 48 hrs by sulforhodamine B assay; format: functional; details: BT-549, 48 h, read-out: Activity
[27] = test system: PC-3; test: Growth inhibition of human PC3 cells after 48 hrs by sulforhodamine B assay; format: functional, cell-based; details: PC-3, 48 h; for CC50: read-out: LC50 (the source's name)
[28] = test system: SNB-19; test: Growth inhibition of human SNB19 cells after 48 hrs by sulforhodamine B assay; format: functional; details: SNB-19, 48 h
[29] = test system: A549; test: Growth inhibition of human A549/ATCC cells assessed as cell growth at 10 uM after 48 hrs by sulforhodamine B assay; format: functional; details: A549, 48 h, read-out: Activity
[30] = test system: A549; test: Growth inhibition of human A549/ATCC cells after 48 hrs by sulforhodamine B assay; format: functional; details: A549, 48 h
[31] = test system: NCI-H460; test: Growth inhibition of human NCI-H460 cells assessed as cell growth at 10 uM after 48 hrs by sulforhodamine B assay; format: functional; details: NCI-H460, 48 h, read-out: Activity
[32] = test system: OVCAR-5; test: Growth inhibition of human OVCAR5 cells after 48 hrs by sulforhodamine B assay; format: functional; details: OVCAR-5, 48 h
[33] = test system: SF-539; test: Growth inhibition of human SF539 cells assessed as cell growth at 10 uM after 48 hrs by sulforhodamine B assay; format: functional; details: SF-539, 48 h, read-out: Activity
[34] = test system: MOLT-4; test: Growth inhibition of human MOLT4 cells after 48 hrs by sulforhodamine B assay; format: functional; details: MOLT-4, 48 h; for CC50: read-out: LC50 (the source's name)

O=C(Nc1cccc(-n2cc(-c3ccncc3)c(-c3ccc(Cl)c(O)c3)n2)c1)Nc1ccc(Cl)c(C(F)(F)F)c1
growth at 10 µM [1]: -75.8%
GI50 [2]: 1.28 µM
TGI [2]: 5.73 µM
CC50 [2]: 22.6 µM
GI50 [3]: 0.998 µM
TGI [3]: 3.94 µM
CC50 [3]: > 32.5 µM
growth at 10 µM [4]: -76%
growth at 10 µM [5]: -11.2%
growth at 10 µM [6]: 7.46%
GI50 [7]: 0.576 µM
LC50 (concentration killing 50% of starting cells) [7]: 9.58 µM
TGI [7]: 1.65 µM
growth at 10 µM [8]: -28.8%
growth at 10 µM [9]: -1.62%
GI50 [10]: 0.548 µM
LC50 (concentration killing 50% of cells) [10]: 2.74 µM
TGI [10]: 1.23 µM
growth at 10 µM [11]: 4.7%
GI50 [12]: 0.74 µM
IC50 [12]: 0.74 µM
TGI [12]: 2.06 µM
CC50 [12]: > 32.5 µM
growth at 10 µM [13]: -7.39%
GI50 [14]: 0.488 µM
LC50 [14]: 11.4 µM
TGI [14]: 1.44 µM
GI50 [15]: 0.715 µM
LC50 (concentration killing 50% of cells) [15]: > 32.5 µM
TGI [15]: 2.22 µM
GI50 [16]: 0.508 µM
LC50 (concentration killing 50% of cells) [16]: > 32.5 µM
TGI [16]: 1.67 µM
GI50 [17]: 0.797 µM
TGI [17]: 11.2 µM
CC50 [17]: > 32.5 µM
growth at 10 µM [18]: -34.5%
growth at 10 µM [19]: 24.7%
GI50 [20]: 1.09 µM
TGI [20]: 4.48 µM
CC50 [20]: 24.7 µM
growth at 10 µM [21]: -31.3%
GI50 [22]: 0.541 µM
IC50 [22]: 0.54 µM
TGI [22]: 1.75 µM
CC50 [22]: > 32.5 µM
GI50 [23]: 0.951 µM
LC50 [23]: 26.1 µM
TGI [23]: 3.33 µM
growth at 10 µM [24]: -100%
growth at 10 µM [25]: -55.1%
growth at 10 µM [26]: 1.33%
IC50 [27]: 0.59 µM
CC50 [27]: > 32.5 µM
GI50 [28]: 1.12 µM
LC50 (concentration killing 50% of cells) [28]: > 32.5 µM
TGI [28]: 4.86 µM
growth at 10 µM [29]: -21.3%
GI50 [30]: 0.927 µM
LC50 (concentration killing 50% of starting cells) [30]: > 32.5 µM
TGI [30]: 5.09 µM
growth at 10 µM [31]: -43.7%
GI50 [32]: 1.57 µM
LC50 (concentration killing 50% of cells) [32]: > 32.5 µM
TGI [32]: 16.2 µM
growth at 10 µM [33]: -26.1%
GI50 [34]: 0.777 µM
TGI [34]: 2.93 µM
CC50 [34]: > 32.5 µM

O=C(Nc1cccc(-n2cc(-c3ccncc3)c(-c3ccc(Cl)c(O)c3)n2)c1)c1ccc(N2CCOCC2)c(C(F)(F)F)c1
growth at 10 µM [1]: 9.98%
GI50 [2]: 14.4 µM
TGI [2]: > 50 µM
CC50 [2]: > 50 µM
GI50 [3]: 2.87 µM
TGI [3]: > 50 µM
CC50 [3]: > 50 µM
growth at 10 µM [4]: -26%
growth at 10 µM [5]: 51.6%
growth at 10 µM [6]: 73.9%
GI50 [7]: 1.25 µM
LC50 (concentration killing 50% of starting cells) [7]: > 50 µM
TGI [7]: 4.08 µM
growth at 10 µM [8]: 65.7%
growth at 10 µM [9]: 119%
GI50 [10]: 1.85 µM
LC50 (concentration killing 50% of cells) [10]: > 50 µM
TGI [10]: 24.9 µM
growth at 10 µM [11]: 59.6%
GI50 [12]: 1.71 µM
IC50 [12]: 1.71 µM
TGI [12]: 7.55 µM
CC50 [12]: 37 µM
growth at 10 µM [13]: 15.5%
GI50 [14]: 0.975 µM
LC50 [14]: > 50 µM
TGI [14]: 15.6 µM
GI50 [15]: 9.42 µM
LC50 (concentration killing 50% of cells) [15]: > 50 µM
TGI [15]: > 50 µM
GI50 [16]: 0.626 µM
LC50 (concentration killing 50% of cells) [16]: > 50 µM
TGI [16]: 2.9 µM
GI50 [17]: 1.85 µM
TGI [17]: > 50 µM
CC50 [17]: > 50 µM
growth at 10 µM [18]: 55.5%
growth at 10 µM [19]: 82.1%
GI50 [20]: > 50 µM
TGI [20]: > 50 µM
CC50 [20]: > 50 µM
growth at 10 µM [21]: 35.2%
GI50 [22]: 7.04 µM
IC50 [22]: 7.04 µM
TGI [22]: 26.6 µM
CC50 [22]: > 50 µM
GI50 [23]: 4.2 µM
LC50 [23]: > 50 µM
TGI [23]: 30.1 µM
growth at 10 µM [24]: 50.8%
growth at 10 µM [25]: 49.2%
growth at 10 µM [26]: 63.6%
GI50 [27]: 2.15 µM
IC50 [27]: 2.15 µM
TGI [27]: > 50 µM
CC50 [27]: > 50 µM
GI50 [28]: 4.11 µM
LC50 (concentration killing 50% of cells) [28]: > 50 µM
TGI [28]: > 50 µM
growth at 10 µM [29]: 31.4%
GI50 [30]: 3.08 µM
LC50 (concentration killing 50% of starting cells) [30]: > 50 µM
TGI [30]: > 50 µM
growth at 10 µM [31]: 5.81%
GI50 [32]: > 50 µM
LC50 (concentration killing 50% of cells) [32]: > 50 µM
TGI [32]: > 50 µM
growth at 10 µM [33]: 41.6%
GI50 [34]: 2.37 µM
TGI [34]: 36.7 µM
CC50 [34]: > 50 µM
